# Laboratory results as given in US20080176851A1, “Method for inhibiting lymphangiogenesis and inflammation” (Shiseido Company, Ltd., priority 2006, published 2008).
# Entries after “also recorded” stand apart in the source; their conditions may differ.
# Key:
# [1] = test system: HR-1 hairless mice; assay: UVB irradiation-induced ear swelling; assay type: in vivo; details: for ear swelling after UVB irradiation vs control-treated: 200 mJ/cm^2 UVB, topical daily 1 mM SNAP or 10 μM NS-2028, days 2-4
# Protocol: (§1) A total of 15 female albino HR-1 hairless mice (Hoshino Laboratory Animal Co., Ltd, Japan) at 8 weeks of age were exposed to a single dose of 200 mJ/cm^2 of UVB irradiation, using ten Toshiba FL-20 SE fluorescent lamps that deliver energy in the UVB (280-340 nm) wave length range with a maximum energy at a wavelength of 305 nm as described(31). Beginning one day before UVB irradiation, the right ears were daily treated topically with 1 mM of SNAP, 10 μM of NS-2028, or 1 mM of SNAP together with 100 μl of 10 μM of NS-2028 in a 50% ethanol solution (n=5 per group) until day 3 after UVB irradiation (5 times total). The left ears were treated with vehicle only. The thickness of the ears was measured every day until day 4 after the UVB irradiation. At 4 days after the UVB irradiation, mouse ears were fixed in cold acetone (AMeX procedure) (30)and were processed for histological analysis of paraffin sections. All animal studies were approved by the Shiseido Life Science Research Center Committee on Research Animal Care.
# [2] = test system: LEC; assay: LEC proliferation assay (5-methylumbelliferylheptanoate fluorescence); assay type: cell-based, human
# Protocol: (§2) Human dermal BVEC and LEC were isolated from neonatal human foreskins by immunomagnetic purification as previously described(18, 19). The lineage-specific differentiation was confirmed by real-time RT-PCR for the lymphatic vascular markers Prox1, LYVE-1 and podoplanin, and for the blood vascukar endothelial markers VEGF receptor-1 and VEGF-C, as well as by immunostains for CD31, Prox1 and podoplanin as described(18, 19). Cells were cultured in endothelial basal medium (Cambrex, Verviers, Belgium) supplemented with 20% fetal bovine serum (Gibco, Paisley, UK), antibiotics, 2 mM L-glutamine, 10 μg/ml hydrocortisone and 2.5×10^−2 mg/ml N-6,2-O-dibutyryl-adenosine 3′,5′-cyclic monophosphate (all from Fluka, Buchs, Switzerland) for up to eleven passages.
# LEC (1.5×10^3) were seeded into fibronectin-coated 96-well plates as described(19). For proliferation studies, quinduplicate wells were treated or not with different concentrations (0.1 to 10 μM) of the NO donor SNAP (S-Nitroso-N-acetyl-D,L-penicillamine) (Cayman Chemical, Ann Arbor, Mich.) in EBM containing 2% fetal bovine serum. In additional assays, LEC were incubated with 10 μM of SNAP, in the presence or absence of the specific guanylate cyclase inhibitor NS-2028 (100 nM, Cayman Chemical, Ann Arbor, Mich.). After 72 hours, cells were incubated with 5-methylumbelliferylheptanoate as described. The fluorescence intensity, proportional to the number of viable cells, was measured using a Spectra Max GEMINI EM (Bucher Biotech AG, Basel, Switzerland). Haptotatic cell migration was studied as described(19), using 24-well FluoroBlok inserts of 8 μm pore size (Falcon, Franklin Lakes, N.J.). […] After 3 hours incubation at 37° C., cells on the underside of the inserts were stained with Calcein-AM (Molecular Probes), and the fluorescence intensity, proportional to the number of viable cells, was measured using a Spectra Max GEMINI EM as described(19). […] Representative images were captured and the total length of tube-like structures per area was measured using the IP-LAB software as described(19). […]
# [3] = test system: HR-1 hairless mice; assay: Histology (hematoxylin-eosin) and MOMA-2 immunohistochemistry of UVB-irradiated ears; assay type: in vivo; details: for MOMA-2 positive cells / macrophage infiltration in the dermis / edema formation in the dermis vs control-treated: day 4 after UVB irradiation
# Protocol: (§3) Immunofluorescence analysis was performed on 6-μm cryostat sections of human neonatal foreskins as described, using polyclonal antibodies against LYVE-1 (kindly provided by Dr. David Jackson, Oxford, UK), sGCα1, sGCβ1, eNOS (as described above), or a mouse monoclonal antibody against human podoplanin (20) (clone D2-40, Signet Laboratories, Dedham, Mass.), and corresponding secondary antibodies labeled with AlexaFluor488 or AlexaFluor594 (Molecular Probes, Eugene, Oreg.). Immunohistochemical analysis was performed on 5 μm AMEX-fixed sections as described(30), using antibodies against the macrophage monocyte marker MOMA-2 (BMA Biomedicals AG, Switzerland) or LYVE-1. Routine hematoxylin-eosin staining was also performed. Sections were examined by a Nikon E-600 microscope (Nikon, Melville, N.Y.) and images were captured with a SPOT digital camera (Diagnostic Instruments, Sterling Heights, Mich.). Computer-assisted morphometric analyses of representative LYVE-1-stained sections were performed as described(3).
# as §1
# [4] = test system: lymphatic vessels; assay: LYVE-1 immunohistochemistry and morphometric analysis of cutaneous lymphatic vessels after UVB; assay type: in vivo; details: UVB-irradiated mice; for enlargement of lymphatic vessels in the dermis (LYVE-1): vs vehicle
# Protocol: as §3, §1
# [5] = test system: LEC; assay: Haptotactic LEC migration assay (FluoroBlok inserts); assay type: cell-based, human; details: 10 μM SNAP, 100 nM NS-2028, 3 hours
# Protocol: as §2
# (§4) LEC (1.5×10^3) were seeded into fibronectin-coated 96-well plates as described(19). […] The fluorescence intensity, proportional to the number of viable cells, was measured using a Spectra Max GEMINI EM (Bucher Biotech AG, Basel, Switzerland). […] After 3 hours incubation at 37° C., cells on the underside of the inserts were stained with Calcein-AM (Molecular Probes), and the fluorescence intensity, proportional to the number of viable cells, was measured using a Spectra Max GEMINI EM as described(19). […] Representative images were captured and the total length of tube-like structures per area was measured using the IP-LAB software as described(19). […]
# [6] = test system: LEC; assay: LEC tube formation assay (type I collagen overlay); assay type: cell-based, human
# Protocol: as §2, §4
# [7] = test system: cGMP production in LEC; assay: cGMP enzyme immunoassay in siRNA-transfected LEC; assay type: cell-based, human
# Protocol: siRNA transfection was performed using the Basic Nucleofactor Kit for primary mammalian endothelial cells (Amaxa Biosystems, CITY, Germany). Briefly, after trypsinization, LEC (5×10^5) were resuspended in 100 μl of basic nucleofactor solution. Cells were transfected by electroporation (Nucleofactor II, Amaxa Biosystems), using 1.6 μg of siRNA containing two different double-stranded oligonucleotides for each sGCα2 or sGCα1. The following siRNAs were used: GCα1: CCUUGUACAUAUAUCAGAUtt and GGCACCCUUAAAGAUUUUUtt, GCα2: CGAUACAGCAGACUCUCAAtt and GCUAUGCUCUGAUGUUUCAtt. Control siRNA (Silencer negative control #1 siRNA, Ambion, Cambridgeshire, UK) comprising a 19-bp scrambled sequence with 3′dT overhangs was used as a control; the sequences has no significant sequence homology to any known gene sequence. At 72 hours after tranfection, cells were used for RNA purification or for cGMP assays. Efficient knockdown of mRNA expression was confirmed by TaqMan real-time RT-PCR for sGCα1 and sGCα2 (Applied Biosystems assay ID for sGCα2 was Hs00181365_ml). For cGMP enzyme immunoassays, 1×10^4 siRNA-transfected LEC were seeded into individual wells of a 96-well plate and were incubated with 2% FBS-containing medium. After 24 hours, cells were incubated with several concentrations of SNAP (1-100 μM) for 15 minutes. The cellular cGMP concentrations were measured using an EIA immunoassay kit (Amersham Biosciences, Freiburg, Germany).
# [8] = day 4 after UVB, SNAP in the presence of NS-2028
Compound,ear swelling after UVB irradiation vs control-treated [1],SNAP-induced augmentation of the UVB response (ear swelling) ([1]; combined topical treatment 1 mM SNAP and 10 μM NS-2028),"effect on SNAP-induced LEC proliferation ([2]; 10 μM SNAP, NS-2028 100 nM, 72 hours)",effect on untreated LEC (proliferation) ([2]; NS-2028 alone),MOMA-2 positive cells / macrophage infiltration in the dermis [3],edema formation in the dermis vs control-treated [3],"SNAP-induced edema formation [3, 8]","SNAP-induced macrophage infiltration [3, 8]",SNAP-induced enlargement of lymphatic vessels ([4]; SNAP with NS-2028),"average size of lymphatic vessels ([4]; day 4, mean±SEM n=5) [μm^2]",enlargement of lymphatic vessels in the dermis (LYVE-1) [4],effect on SNAP-induced LEC migration [5],formation of tube-like structures vs untreated cultures ([6]; 1 μM or 10 μM SNAP),"minimal effective dose for in vitro cord formation by LEC ([6]; type I collagen gel overlay, 6 hours) [µM]","minimal effective concentration for induction of LEC proliferation ([2]; SNAP 0.1 to 10 μM, 72 hours, EBM 2% fetal bovine serum) [µM]","area occupied by lymphatic vessels ([4]; day 4, mean±SEM n=5) [%]","cGMP production in control siRNA- and sGCα2-siRNA transfected LEC ([7]; SNAP 1-100 μM, 15 minutes)","minimal effective dose for increased cGMP production ([7]; control siRNA-transfected and sGCα2 siRNA-transfected LEC, SNAP 15 minutes) [µM]","induction of cGMP production in sGCα1-siRNA transfected LEC ([7]; sGCα1 knockdown, SNAP 1-100 μM)"
"4H-8-Bromo-1,2,4-oxadiazolo(3,4-d)benz(b)(1,4)oxazin-1-one [NS-2028]",significantly reduced,completely prevented,significantly blocked,did not have any effect,less MOMA-2 positive cells,decreased,blocked,blocked,inhibited,350.1,completely blocked,blocked; also recorded: strongly inhibited,–,–,–,–,–,–,–
"CC(=O)NC(C(=O)O)C(C)(C)SN=O (racemic) [SNAP, S-Nitroso-N-acetyl-D,L-penicillamine]",significantly enhanced,–,–,–,strongly enhanced,enhanced,–,–,–,730.7,pronounced enlargement,–,potently promoted,1,1,2.18,dose-dependently induced,1,no induction of cGMP was detected; also recorded: completely prevented
